In US6265603A, “Inhibitors of isoprenyl transferase” (Eisai Co., Ltd., priority 1999, dated 2001):

Experiments:
H-ras = assay: Inhibition of H-ras prenylation/processing in whole cells (H-ras (61 L) transformed NIH3T3 fibroblasts, Western blot); type: cell-based; details: for IC50: Mus musculus; for IC50 / H-ras processing, % inhibition @ 50: H-ras (61 L) transformed NIH3T3 fibroblasts, 24 h, 50 μM lovastatin as 100% reference; for H-ras processing, % inhibition @ 50: @ 50 [μM]
Experimental: The ability of compounds of the invention to inhibit H-ras farnesylation was determined. H-ras (61 L) transformed NIH3T3 fibroblasts were generously provided by C. Der, Univ. N. Carolina. These fibroblasts were treated for 24 h with 50 μM lovastatin or vehicle control or the indicated concentrations of inhibitor. Lovastatin is an HMG-CoA reductase inhibitor. HMG-CoA reductase is an essential enzyme in the cellular synthesis of the prenyl groups with which ras proteins are modified. The cells were lysed in 1% NP-40, 5 mM Tris-HCl (pH 8.0), 5 mM EDTA, 0.1 mM N-tosyl-L-phenylalanine chloromethyl ketone, 0.1 mM N-tosyl-L-lysine chloromethyl ketone, and 1 mM phenylmethylsulfonyl fluoride. The lysate was centrifuged (15000×g, 5 min.) and the supernatant was used as a cell extract. Total protein was separated by SDS-PAGE in 15% acrylamide gel. Processed ras can be differentiated from non-processed ras by its mobility in polyacrylamide gels. After transfer to IMMOBILON P™ membrane (Millipore), the blots were probed with LA069 mouse monoclonal antibody to H-ras (Quality Biotech). All Western blots were developed using ECL chemiluminescent reagents (Amersham) and the relative amounts of farnesylated and non-farnesylated ras were quantitated using the inhibition obtained by 50 μM lovastatin as 100% reference.
Sub-micromolar concentrations are sufficient to inhibit farnesylation of ras proteins in whole cells.

[1] = tested on: H-ras (61 L) transformed NIH3T3 fibroblasts; assay: Inhibition of tumor growth of H-ras (61 L) transformed NIH3T3 xenograft in athymic nude mice; type: in vivo; details: 100, 50 and 25 mg/kg i.v. daily for 5 days; measured days 7, 10, 14
Experimental: H-ras (61 L) transformed NIH3T3 fibroblasts were grown in Dulbecco's modified Eagle's medium supplemented with 10% heat-inactivated calf serum. 100 U/mL penicillin, 100 μg/mL streptomycin, and 0.75 mg/mL G418 (GIBCO) and incubated at 37° C. in 5% CO2. Cells were harvested from exponential-phase cultures with trypsin-EDTA, centrifuged at 160×g for 5 min, washed once with 10 mL cold Hank's balanced salt solution (HBSS, GIBCO), and resuspended at a concentration of 1×10^6 cells/mL.
Five week old female athymic nude mice were obtained from SLC (3371-8, Kotoummachi, Hamamatsu-shi, Shizuoka 431-11, Japan) and maintained under pathogen-free conditions. The mice were subcutaneously injected in the lateral flank with 1×10^5 H-ras transformed cells/mouse.
Inhibitor compound 1 was suspended in 5% glucose in a total injection volume of 0.2 mL. Three dosage concentrations were prepared, 100, 50 and 25 mg/kg. Compound 1 was intravenously injected daily in the tail vein for 5 consecutive days, starting the day after the implantation (day 0). The control group was injected with vehicle only. Body weight and tumor dimensions were measured at days 7, 10, and 14. Tumor volume was estimated by the following calculation: tumor volume=(0.5)(length×width×width). At day 14, each mouse was euthanized with CO2 (g), and each tumor was excised and weighed. […]

FTase = FTase (Homo sapiens, UniProt P49354+P49356); assay: In vitro inhibition of FTase-mediated prenylation (recombinant FTase, recombinant H-ras, [3H] farnesylpyrophosphate); type: biochemical; details: 15 min, 37° C.; 3 μM recombinant H-ras, 440 nM [3H] farnesylpyrophosphate
Experimental: (§1) The ability of the disclosed inhibitor compounds to inhibit FTase was measured according to a published prenylation assay (Moores et al., J. Biol Chem. 266:14603 (1991)). Recombinant FTase with 3 μM recombinant H-ras and 440 nM [^3 H] farnesylpyrophosphate were used were used. The inhibitors were diluted in assay buffer, and each assay mixture was incubated 15 min. at 37° C. Where inhibition of GGTase I was measured, GGTase I with 5 μM recombinant, H-ras (61 L, CAIL) and 1 mM [^3 H] geranylgeranyl diphosphate were used.
(§2) Nanomolar concentrations of the indicated compounds were sufficient to inhibit farnesylation of ras proteins in vitro. For screening candidate compounds useful for the treatment of ras-associated tumors, the FTase assay is preferred. […] Substitutions which confer GGTase I specificity as taught herein also produced potent inhibitors of GGTase I.

GGTase I = GGTase I (Homo sapiens, UniProt P49354+P53609); assay: In vitro inhibition of GGTase I-mediated prenylation (H-ras (61 L, CAIL), [3H] geranylgeranyl diphosphate); type: biochemical; details: 5 μM recombinant H-ras (61 L, CAIL), 1 mM [3H] geranylgeranyl diphosphate
Experimental: as §1, §2

IC50 (FTase) [nM] | IC50 (GGTase I) [nM] | Structure (SMILES) | IC50 (H-ras) [nM] | also measured
– | – | COC(=O)[C@H](CCSC)NC(=O)c1cc(OCC[C@@H](N)CS)ccc1C(C)C [Compound 1] | 39 | potency within the series (in words) (H-ras; statement in Formulations section, test not specified): the most potent compound of the series; inhibition of tumor growth / tumor volume (FIG. 1) [1]: inhibition of tumor growth
45 | 1900 | CSCC[C@H](NC(=O)c1ccccc1OC[C@@H](/C=C/[C@@H](N)CS)C(C)C)C(=O)O [Compound 2] | – | –
500 | 1700 | CSCC[C@H](NC(=O)c1cc2ccccc2cc1OC[C@@H](/C=C/[C@@H](N)CS)C(C)C)C(=O)O [Compound 3] | – | –
30 | 1900 | CSCC[C@H](NC(=O)c1cccc(OC[C@@H](/C=C/[C@@H](N)CS)C(C)C)c1)C(=O)O [Compound 4] | – | –
6300 | 40000 | CSCCC(NC(=O)c1ccc(OC[C@@H](/C=C/[C@@H](N)CS)C(C)C)cc1)C(=O)O (stereo partly drawn) [Compound 5] | – | –
1300 | 4200 | CSCC[C@H](NC(=O)c1cc2ccccc2cc1OC/C=C/[C@@H](N)CS)C(=O)O [Compound 6] | – | –
93 | 3000 | CSCC[C@H](NC(=O)c1cccc(OC/C=C/[C@@H](N)CS)c1)C(=O)O [Compound 7] | – | –
890 | > 100000 | CSCC[C@H](NC(=O)c1ccc(OC/C=C/[C@@H](N)CS)cc1)C(=O)O [Compound 8] | – | –
22 | 3800 | CSCC[C@H](NC(=O)c1cc(OC[C@@H](/C=C/[C@@H](N)CS)C(C)C)ccc1C(C)C)C(=O)O [Compound 9] | – | –
21 | 390 | CSCC[C@H](NC(=O)c1cc(OCC[C@@H](N)CS)ccc1C(C)C)C(=O)O [Compound 11] | – | –
4 | 38 | CSCC[C@H](NC(=O)c1cc(OCC[C@@H](N)CS)ccc1-c1ccccc1)C(=O)O [Compound 12] | – | –
15 | 130 | CSCC[C@H](NC(=O)c1cc(OC[C@@H](N)CS)ccc1-c1ccccc1)C(=O)O [Compound 14] | – | –
– | – | COC(=O)C(CCSC)NC(=O)c1ccccc1OC[C@@H](/C=C/[C@@H](N)CS)C(C)C (stereo partly drawn) [Compound 15] | 4100 | –
– | – | COC(=O)[C@H](CCSC)NC(=O)c1cccc(OC[C@@H](/C=C/[C@@H](N)CS)C(C)C)c1 [Compound 17] | 3300 | –
– | – | COC(=O)[C@H](CCSC)NC(=O)c1ccc(OC[C@@H](/C=C/[C@@H](N)CS)C(C)C)cc1 [Compound 18] | > 50000 | –
– | – | COC(=O)[C@H](CCSC)NC(=O)c1cc2ccccc2cc1OC/C=C/[C@@H](N)CS [Compound 19] | – | H-ras processing, % inhibition @ 50 (H-ras): 46%
– | – | COC(=O)C(CCSC)NC(=O)c1cccc(OC/C=C/[C@@H](N)CS)c1 (stereo partly drawn) [Compound 20] | – | H-ras processing, % inhibition @ 50 (H-ras): 38%
– | – | COC(=O)[C@H](CCSC)NC(=O)c1ccc(OC/C=C/[C@@H](N)CS)cc1 [Compound 21] | > 50000 | –
– | – | COC(=O)[C@H](CCSC)NC(=O)c1cc(OC[C@@H](/C=C/[C@@H](N)CS)C(C)C)ccc1C(C)C [Compound 22] | 122 | –
– | – | COC(=O)[C@H](CCSC)NC(=O)c1cc(OC[C@@H](/C=C/[C@@H](N)CS)C(C)C)ccc1-c1ccccc1 [Compound 23] | 31000 | –
– | – | COC(=O)[C@H](CCSC)NC(=O)c1cc(OCC[C@@H](N)CS)ccc1-c1ccccc1 [Compound 24] | 298 | –
– | – | COC(=O)[C@H](CCSC)NC(=O)c1cc(OC[C@@H](N)CS)ccc1C(C)C [Compound 25] | 3100 | –
– | – | COC(=O)[C@H](CCSC)NC(=O)c1cc(OC[C@@H](N)CS)ccc1-c1ccccc1 [Compound 26] | 3200 | –
– | – | COC(=O)[C@H](CCSC)NC(=O)c1cc(COC[C@@H](N)CS)ccc1C(C)C [Compound 27] | 49 | –
– | – | COC(=O)[C@H](CCSC)N(C)Cc1cc(OCC[C@@H](N)CS)ccc1C(C)C [Compound 28] | – | H-ras processing, % inhibition @ 50 (H-ras): 42%
– | – | COC(=O)[C@H](CCSC)NC(=O)c1cc(OCC[C@@H](C)CS)ccc1C(C)C [Compound 29] | > 50000 | –
15 | 930 | CSCC[C@H](NC(=O)c1cc(COC[C@@H](N)CS)ccc1C(C)C)C(=O)O [Compound 30] | – | –
350 | 8900 | CSCC[C@@H](C(=O)O)N(C)Cc1cc(OCC[C@@H](N)CS)ccc1C(C)C [Compound 31] | – | –
470 | 100000 | CSCC[C@H](NC(=O)c1cc(OCC[C@@H](C)CS)ccc1C(C)C)C(=O)O [Compound 32] | – | –
